Columns and labels:
CD147 [1] = experiment: Pulse chase analysis of CD147 protein maturation in MM1S cells; type: cell-based, human; details: 35S-Met/Cys pulse-chase
Experimental: In a complementary approach using pulse-chase analysis, CD147 protein maturation from the immature core-glycosylated to the mature high-glycosylated form necessary for membrane localization was investigated. […] Importantly, treatment with MLN4924, an inhibitor of Cullin-RING ubiquitin ligases, had no effect on CD147 stability or processing, thereby further underscoring a ubiquitin-independent effect of CRBN on CD147 (FIG. 13h).
Labelling of MM1S cells with ^35S-Met/Cys was essentially performed as described previously. […] Newly translated proteins were metabolically labeled for 45 Minutes with methionine- and cysteine-free DMEM containing 0.2 mCi/ml [35S]-Met/Cys. Cells were then washed three times with PBS (37° C.) and incubated with DMEM for up to 24 hours.

CD147/MCT1 complex = experiment: Immunoblot analysis of CD147 and MCT1 protein levels in myeloma cells; type: cell-based, human; details: for Destabilization of CD147/MCT1: 100 nM pomalidomide, 100 μM thalidomide
Experimental: HEK 293T and HeLa cells were grown in Dulbecco's modified Eagle's Medium (DMEM), each media containing 10% fetal bovine serum. (FBS). The human multiple myeloma cell lines MM1.S, U266, KMS-12-BM, RPMI 8226 and JJN3 were cultured in RPMI-1640 with 10% FBS. […] Sf9 insect cells (Life technologies) were cultured in Sf-900 II serum-free medium (SFM, Life technologies) supplemented with 10% heat-inactivated FBS and 10 μg/ml gentamycin. High Five cells (Invitrogen) were cultured in Express Five SFM supplemented with 10 mM L-glutamine and 10 μg/ml gentamycin. All cells tested mycoplasma negative by a PCR detection method.
Cell samples were lysed in lysis buffer (NaCl 150 mM, Tris-HCl 50 mM, MgCl2 5 mM, EDTA 1 mM, INP-40 0.1%, Glycerol 5% and inhibitors) for whole cell lysates, immunoprecipitations or pulldown experiments. Details of extract preparation, immunoprecipitation, and immunoblotting, were previously described. Briefly, the cellular lysates were centrifuged 15 min at 14 000 rpm at 4° C. to separate from cellular debris. Protein concentration in the supernatants was measured before Laemmli buffer was added. The lysates were separated by SDS-PAGE and blotted onto PVDF (polyvinylidene difluoride) membranes. After blotting, PVDF membranes were stained With. Ponceau solution to evaluate protein loading. After washing and blocking unspecific bindings in 5% milk; the membranes were incubated with primary antibodies. After addition of horseradish peroxidase coupled secondary antibodies, western blot membranes were developed using the ECL (enhanced chemoluminescence) method (SuperSignal West reagents from Thermo Scientific). For immunoprecipitations (IPs), cell lysates were incubated with Flag-M2 agarose beads (Sigma) for Flag-IPs, HA-7 agarose beads (Sigma) for HA-IPs, or protein-A sepharose beads (GE Healthcare) together with primary rabbit antibodies for binding of endogenous proteins (e.g. for CRBN-IP). For the experiments using a protein cross linker, DSS (Pierce) was added to the cells to a final concentration of 1 mM for 45 minutes at RT. The Cross linker was quenched by addition of Tris-HCl, pH 7.5 20 mM and cell lysis was performed as described, with the only exception of HEPES buffer 50 mM, pH 7.5 instead of Tris-HCl buffer. After washing the beads four times in lysis buffer, Laemmli buffer was added and proteins were analyzed by SDS-electrophoresis.

CD147 [2] = experiment: Flow cytometry of CD147 cell surface expression in MM1S cells; type: cell-based, human; details: lenalidomide 10 μM
Experimental: The secondary antibody was […] anti mouse IgG. After washing, stained cells were analysed for CD147 expression using a FACSCalibur (Becton Dickinson).

VEGF = VEGF secretion in MM cell culture supernatants (ELISA); type: cell-based, human; details: 10 μM, 96 h
Text: (§1) Supernatants were collected and snap-frozen for subsequent analysis. VEGF and MMP7 concentrations were, determined in an enzyme linked immunosorbent assay (ELISA) using kits RAB0507, and RAB0369 (VEGF and MMP7 respectively, both Sigma) according to the manufacturer's instructions. Results were normalized to protein concentration of corresponding cell lysates.

MMP7 = MMP7 secretion in MM cell culture supernatants (ELISA); type: cell-based, human; details: 10 μM, 96 h
Text: as §1

MM cell lines [3] = experiment: Intra- and extracellular lactate measurement in MM cells; type: cell-based, human
Experimental: For analysis of intra- and extracellular lactate, lenalidomide or DMSO treated cells were centrifuged down. For extracellular lactate, the supernatant was collected and frozen; normal cell culture medium was used as control for normalization. For measurement of intracellular lactate, cell pellets were lysed in lysis buffer. Lactate content in cell lysates as well as in the supernatants were analysed with the cobas 8000 (Roche).

CD147 [4] = experiment: CD147 surface expression on erythropoiesis in MDS patient bone marrow (flow cytometry); type: in vivo, human; details: del(5q) MDS patients on lenalidomide treatment vs untreated del(5q) and non-del(5q) MDS
Text: After informed consent, bone marrow samples from patients with MDS were collected in heparin, lysed with Versalyse® (Beckman Coulter, Krefeld, Germany), stained with anti-human monoclonal fluorochrome-conjugated antibodies and analyzed by flow-cytometry on a Cytomics FC 500 analyzer (Beckman Coulter). The following antibodies were used: Beckman Coulter: CD45-ECD (clone J33), CD33-PE (clone D3HL60.251), CD14-PECy5 (clone RM052), CD7-PE (clone 8H8.1), CD3-PECy5 (clone UCHT1), CD19-PECy7 (clone J4,119), CD7-PE, GlyA-PE (clone 11E4B-7-6), CD34-PECy7 (clone 581) and CD147-FITC (clone HIM6) from BD Biosciences. Using a CD45 vs, SSC gating strategy monocytes, lymphocytes, granulocytes, progenitor cells and CD45low/-GlyA+ cells were identified, Gates were then placed on CD19+ B-cells, CD3+ and CD3-CD7+ NK cells within the lymphocyte gate; on CD33+ granulocytes and CD14+ monocytes; on CD45low/CD33+ CD34+ progenitor cells and on CD45low/-GlyA+ erythropoiesis. CD147 expression of CD45low/-GlyA+ erythropoiesis was then determined by histogram gating. Data are represented as median fluorescence intensity of CD147 relative to isotype-matched control. Data were analyzed using Kaluza® Flow Analysis Software (Beckman Coulter).

[5] = test system: del(5q) MDS bone marrow derived CD34+ cells; experiment: Apoptosis (Annexin V/PI) in in vitro propagated del(5q) MDS CD34+ cells; type: cell-based, human; details: 10 μM lenalidomide, erythroid differentiation, non-erythroid vs early erythroid (CD36+) cells
Experimental: Mononuclear cells from bone marrow aspirates were enriched for CD34^+ cells by magnetic bead selection (MACS, MiltenylBiotech) according to the manufacturer's instructions. CD34^+ cells were differentiated along the erythroid lineage essentially as known in the art. […] On day 7, 2 IU/ml erythropoietin (EPO Janssen-CILAG GmbH) was added to the cultures to stimulate erythropoiesis. Half medium changes were performed every third day and cells were harvested on day 14.
Cells were collected and washed with Annexin/PI buffer containing […], 1.62 mM CaCl2. Cell pellets were stained with CD34-FITC (BD Pharmingen, clone 581/CD34), CD147-PE (BD Pharmingen, done HIM6), CD33-PC5.5 (Beckmann Coulter, clone D3HL60.251), CD45 PE Cy7 (eBioscience, clone H130), CD36-APC Cy7 (BioLegend, clone 336213), primary CD235α-biotin (eBioscience, clone HIR2) and secondary streptavidin eFluor®450 (eBioscience) antibodies according to manufacturer's instructions. The combination of APC Annexin V (BD Pharmingen) and PI was added for the determination of apoptosis and necrosis. Single stained samples were used for compensation.
Flow cytometry was performed on a CyAn ADP LxP8 (Coulter-Cytomation) and data were analyzed using FlowJo software (TreeStar Inc.).

MM cell lines [6] = experiment: Cell proliferation / survival of MM cells (trypan blue exclusion); type: cell-based, human; details: sensitive cells (MM1S), 10 μM lenalidomide, 72 hours
Experimental: MM cells were subjected to treatment with lenalidomide/DMSO for the indicated times or infected with lentiviral-shRNA. On days indicated, proliferation was assessed using the trypan blue exclusion method. Results are presented as ratios to DMSO, wildtype or sh_scramble controls.

IKZF1/3 = experiment: Immunoblot analysis of IKZF1/IKZF3 in myeloma cells; type: cell-based, human; details: MM1S cells; 10 μM lenalidomide, 100 nM pomalidomide, 100 μM thalidomide
Experimental: HEK 293T and HeLa cells were grown in Dulbecco's modified Eagle's Medium (DMEM), each media containing 10% fetal bovine serum. […] The human multiple myeloma cell lines MM1.S, U266, KMS-12-BM, RPMI 8226 and JJN3 were cultured in RPMI-1640 with 10% FBS. […] Sf9 insect cells (Life technologies) were cultured in Sf-900 II serum-free medium (SFM, Life technologies) supplemented with 10% heat-inactivated FBS and 10 μg/ml gentamycin. High Five cells (Invitrogen) were cultured in Express Five SFM supplemented with 10 mM L-glutamine and 10 μg/ml gentamycin. All cells tested mycoplasma negative by a PCR detection method.
Cell samples were lysed in lysis buffer (NaCl 150 mM, Tris-HCl 50 mM, MgCl2 5 mM, EDTA 1 mM, INP-40 0.1%, Glycerol 5% and inhibitors) for whole cell lysates, immunoprecipitations or pulldown experiments. […] Briefly, the cellular lysates were centrifuged 15 min at 14 000 rpm at 4° C. to separate from cellular debris. Protein concentration in the supernatants was measured before Laemmli buffer was added. The lysates were separated by SDS-PAGE and blotted onto PVDF (polyvinylidene difluoride) membranes. After blotting, PVDF membranes were stained With. […] After washing the beads four times in lysis buffer, Laemmli buffer was added and proteins were analyzed by SDS-electrophoresis.

Zebrafish larvae = experiment: Zebrafish teratotoxicity phenotype at 3 dpf; type: in vivo; details: for Phenotype after CD147 knock-down by morpholino: 0.1 mM or 0.25 mM morpholino injected, 3 dpf
Experimental: Briefly, Zebrafish larvae were injected with different concentrations of splice-Morpholinos targeting all 3 predicted CD147 isoforms in zebrafish or treated with 400 μM Thalidomide on the day of fertilization. On day and 3 after fertilization, the phenotypes of the larvae were analysed.
The wildtype strain AB was used in all experiments. All embryos were kept at 28.5° C. in E3 media (5 mM NaCl, 0.17 mM KCl, 0.33 mM CaCl2, 0.33 mM MgSO4) supplemented with 10^−5% methylene blue. All experiments were performed in accordance with animal protection standards of the Ludwig-Maximilians University Munich and were approved by the government of Upper Bavaria (Regierung von Oberbayem, Munich, Germany).
Knock-down of CD147 in zebrafish was done by microinjection of 2-4 pl of 0.1 mM or 0.25 mM antisense morpholino oligo (Gene Tools, LLC) targeting either a splice junction of CD147 (CD147 splice MO; exonic sequence in upper case: 5′-aagaggtgaagaacatacAAGTGTT-3′ (SEQ ID NO: 18) or the ATG start codon (CD147 ATG MO; 5′-[…]-3′ (SEQ. ID NO: 39) at the 1 cell stage. Injected eggs and controls were cultured at 28° C. in E3 buffer. For each experiment, 50 eggs were injected.
For thalidomide treatment, fertilized embryos were randomly split into two groups at 3 hours post fertilization (hpf): One group was transferred into E3 containing 0.1% DMSO, the other group into E3 with 400 μM thalidomide (Sigma-Aldrich) and kept at 28.5° C. for 3 days.
Larvae were analyzed for Phenotypes at 3 days post fertilization (dpf). For each experiment, 10 embryos were treated. CD147 splice MO-injected larvae were compared to control larvae and thalidomide treated larvae were compared to DMSO controls. Larvae were anesthetized with Tricaine (0.016% w/v) and mounted in 3% methylcellulose on coverslips. DIC images were taken with an Axioplan2 compound microscope (Zeiss).

CD147 [7] = experiment: Semiquantitative RT-PCR verification of CD147 knockdown in zebrafish; type: in vivo; details: CD147 splice morpholino at indicated concentrations
Experimental: For verification of efficient CD147 knock-down in zebrafish embryos, total RNA of larvae injected with CD147 splice morpholino or control was extracted using the QIAshredder and RNeasy Kit (both Qiagen); cDNA synthesis was performed as described above. PCR reactions were performed on the peqSTAR2x gradient thermocycler (Peqlab) following standard procedures and using the following primers: […]
One fifth of the PCR reaction was loaded onto an agarose gel and subjected to gel electrophoresis.

[8] = lenalidomide-sensitive MM cell lines

NS(=O)(=O)OC[C@@H]1C[C@@H](n2ccc3c(N[C@H]4CCc5ccccc54)ncnc32)C[C@@H]1O [MLN4924]
CD147 stability or processing (CD147 [1]): no effect

Nc1cccc2c1CN(C1CCC(=O)NC1=O)C2=O (centres unmarked) [lenalidomide]
Level of immature, core-glycosylated form of CD147 (CD147/MCT1 complex; MM1S cells, 10 μM lenalidomide, time course): progressive accumulation | Dose dependence of CD147 and MCT1 destabilization (CD147/MCT1 complex; MM1S cells, different concentrations, 72 hours): destabilizes CD147 and MCT1 in a dose dependent manner | Destabilization of CD147/MCT1 (CD147/MCT1 complex; MM1S cells, 10 μM lenalidomide): destabilize CD147/MCT1 | CD147 and MCT1 expression upon lenalidomide exposure (CD147/MCT1 complex; lenalidomide-resistant MM lines (KMS12BM, RPMI 8226)): remained unchanged | CD147 and MCT1 stability upon lenalidomide exposure (CD147/MCT1 complex; lenalidomide-sensitive MM lines (MM1S, U266)): destabilization of CD147 and MCT1 | CD147 de novo synthesis (CD147 [1]): no effect | CD147 glycosylation as readout for maturation and membrane localization (CD147 [1]): substantially impaired | CD147 cell surface expression (CD147 [2]): decreased | VEGF secretion (VEGF; [8]): significantly reduced | VEGF secretion (VEGF; resistant MM cell lines): only minor effects | MMP7 secretion (MMP7; [8]): significantly reduced | MMP7 secretion (MMP7; resistant MM cell lines): only minor effects | Intracellular lactate levels (MM cell lines [3]; [8]): significantly elevated | Intracellular lactate levels (MM cell lines [3]; resistant MM cell lines): only minor effects | CD147 surface expression in the erythropoietic compartment (CD147 [4]): attenuated to the level of non-del(5q) MDS samples | Lenalidomide-induced apoptosis by cell compartment [5]: largely restricted to early erythroid cells | Anti-myeloma effect of lenalidomide under induced overexpression of CD147 and MCT1 (MM cell lines [6]): attenuated

Nc1cccc2c1C(=O)N(C1CCC(=O)NC1=O)C2=O (centres unmarked) [pomalidomide]
Destabilization of CD147/MCT1 (CD147/MCT1 complex; MM1S cells, 10 μM lenalidomide): destabilize CD147/MCT1 | IKZF1/3 degradation (IKZF1/3): restricted to lenalidomide and pomalidomide

O=C1CCC(N2C(=O)c3ccccc3C2=O)C(=O)N1 (stereo not drawn) [thalidomide, α-N-phthalimido-glutarimide]
Destabilization of CD147/MCT1 (CD147/MCT1 complex; MM1S cells, 10 μM lenalidomide): destabilize CD147/MCT1 | IKZF1/3 degradation (IKZF1/3): restricted to lenalidomide and pomalidomide | Teratotoxic phenotype (Zebrafish larvae; 400 μM thalidomide, 3 days post fertilization): teratotoxic phenotype, including reduced size of head, fins, and eyes

ATG MO: antisense morpholino oligo targeting the ATG start codon of CD147, 5′-GCGCCAAAGAGCTTCTTTTCCATGC-3′ (SEQ. ID NO: 39) (all phosphorodiamidate morpholino (PMO))
Phenotype after CD147 knock-down by morpholino (Zebrafish larvae): identical phenotypes as thalidomide treatment

splice MO: antisense morpholino oligo targeting a splice junction of CD147, 5′-aagaggtgaagaacatacAAGTGTT-3′ (SEQ ID NO: 18) (antisense AAGAGGTGAAGAACATACAAGTGTT; all phosphorodiamidate morpholino (PMO))
Phenotype after CD147 knock-down by morpholino (Zebrafish larvae): identical phenotypes as thalidomide treatment | CD147 knockdown (RT-PCR) (CD147 [7]): efficient and dose dependent CD147 knockdown
